Results as given in US9956202B2, “Use of indolyl and indolinyl hydroxamates for treating neurodegenerative disorders or cognitive decicits” (Taipei Medical University, priority 2013, dated 2018).

Assays:
[1] = test system: apoptotic cells of spinal cord; assay: TUNEL staining of apoptosis after spinal cord injury; format: in vivo; settings: rats after spinal cord injury, 30 mg/Kg per day for 7 days, vs vehicle
Description: (§1) In this example, effects of compounds of this invention were verified using spinal cord injury animal model.
(§2) The spinal cord injury was produced by using the NYU (New York University) impactor device. The spinal cord contusion was performed under deep anesthesia with Zoleti150 (40 mg/kg i.p.) After a dorsal laminectomy was performed on T9, the spinal cord segments T9 were exposed. Then, the surgery of spinal cord injury was produced by dropping the 10 gram rod from a height of 50 mm.
(§3) Compound 1 was dissolved in 5% ethanol, 35% polyethylene glycol and 60% normal saline at a concentration of 15 mg/ml. […]
(§4) On 7th day after hemisection spinal cord injury, animals were deeply anesthetized by isoflurane and perfused through the left ventricle with phosphate-buffered saline (PBS), followed by cold 4% paraformaldehyde in 0.15M sodium phosphate buffer, pH 7.4. […] Furthermore, apoptosis after spinal cord injury was detected by terminal deoxynucleotidyl transferase-mediated deoxyuridine triphosphate nick-end labeling (TUNEL) using the apoptosis detection kit (Oncogene Research Products, Cambridge, Mass.). […] Only cells with clearly visible stain were counted. All data are presented as means±SEM of five consecutive cell quantifications.

[2] = test system: C57BL/6J mice; assay: Contextual fear conditioning (freezing behavioral test) in normal mice; format: in vivo; settings: normal C57BL/6J mice; 50, 100, 200 mg/kg intraperitoneally once before training; test 24 h after training; dose dependent; *p<0.05, **p<0.01
Text: (§5) Tg2576 transgenic mice carry a transgene coding for the 695-amino acid isoform of human APP derived from a large Swedish family with early-onset Alzheimer's disease (AD). These mice express high concentrations of the mutant Aβ, develop significant number of amyloid plaques and display memory deficits. Tg2576 mice were purchased from The Jackson laboratory (Maine, US). C57BL/6J mice 6-8 week of age were purchased from BioLASCO Taiwan Co., Ltd for dose-dependent effect study. The animals were housed 5 per cage in a temperature (21±1° C.)—and humidity (70±5%)—controlled room, under a 12 h-12 h light-dark cycle (lights on at 6:00 a.m.). Animal had free access to food and water during the experiment. Behavior testing was carried out in the light phase of the cycle. All animal experiments were carried out in accordance with the guidelines established by the Institutional Animal Care and Utilization Committee of the Taipei Medical University (Taipei, Taiwan, R.O.C.).
as §3
(§6) All mice were transported to the laboratory for 2 hour before training to erase unnecessary stress. […] The data was recorded and calculated by its system software (TruScan 2.02).

[3] = test system: NeuN-positive neurons of spinal cord; assay: NeuN immunohistochemistry after spinal cord injury; format: in vivo; settings: rats after spinal cord injury, 30 mg/Kg per day for 7 days, vs vehicle
Description: as §1, §2, §3, §4

[4] = test system: Tg2576 mice; assay: Contextual fear conditioning (CS-US pairing) in dementia animal model; format: in vivo; settings: orally 50 mg/kg per day for 20 days, 6-month old p=0.0264, 12-month old p=0.0028 vs untreated of same age
Text: (§7) Tg2576 transgenic mice carry a transgene coding for the 695-amino acid isoform of human APP derived from a large Swedish family with early-onset Alzheimer's disease (AD). These mice express high concentrations of the mutant Aβ, develop significant number of amyloid plaques and display memory deficits.
as §5, with “All animal experiments were carried out in accordance with the guidelines established by the Institutional Animal Care and Utilization Committee of the Taipei Medical University (Taipei, Taiwan, R.O.C.).” left out
as §6

[5] = test system: histone 3 and 4 acetylation, p21 and phospho-ERK; assay: Western blot of histone 3 and 4 acetylation, p21 and phospho-ERK after spinal cord injury; format: in vivo, rats; settings: 100 mg/kg intravenous injection, vs vehicle control
Description: as §1, §2, §3

[6] = test system: synaptic plasticity proteins; assay: Western blotting of synaptic plasticity proteins in hippocampus of Tg2576 mice; format: in vivo; settings: oral gavage 50 mg/kg per day for 20 days
Description: as §7
Compound 1 was dissolved in 5% ethanol, 35% polyethylene glycol and 60% normal saline at a concentration of 15 mg/ml. C57BL/6J Mice were treated with Compound 1 (50, 100, 200 mg/kg, intraperitoneally) or vehicle once before contexual fear conditioning training. Then, Tg2576 transgenic mice were treated with Compound 1 orally (50 mg/kg per day for 20 days) or vehicle at the ages of 5 months and 11 months.
Animals were deep anesthetized with choral hydrate (400 mg/kg) and perfused with both normal saline and 4% paraformaldehyde. The hippocampus were collected and lysed in lysis buffer (Lysis-M reagent, Roche). The lysates were incubated for 5 min on ice and centrifuged for 20 min at 14,000 r.p.m. and 4° C. The supernatant was collected as cytosolic protein extract. Protein concentrations were measured and normalized using Bradford protein assay kit (Pierce). After normalization, 30 μg of protein was subjected to western blotting. Immunoreactivity was examined by enhanced chemiluminescence (Millipore).

[7] = test system: Sprague-Dawley rats with spinal cord injury; assay: BBB Locomotor Rating Scale after spinal cord injury; format: in vivo; settings: intravenous 30 mg/Kg per day for 7 days, 7 days after spinal cord injury, vs vehicle, p=0.0147
Description: as §1
Male Sprague-Dawley rats (Academia Sinica, Taiwan), weighing 280-330 g, were kept two per cage for at least five days after their arrival. The rats had access to food and water at libitum and were housed within a room with a 12:12 h dark-light cycle. This study was performed in accordance with the guidelines provided by the Experimental Animal Laboratory and approved by the Animal Care and Use Committee in Taipei Medical University.
as §2
Behavioral tests and analyses were performed by observers blinded to the treatments. Locomotor function was observed and recorded using the Basso, Beattie, and Bresnahan (BBB) Locomotor Rating Scale. On days 1, 3, and 7 post injury, hindlimb motor function was assessed using the open-field BBB score locomotor test.
as §3

## O=C(/C=C/c1ccc2c(ccn2S(=O)(=O)c2ccccc2)c1)NO [compound 1, 3-(1-benzensulfonyl-1H-indol-5-yl)-N-hydroxy-acrylamide]
[1]; p=0.0015
  apoptotic cells number (TUNEL): significantly reduced
[1]; p=0.0098
  apoptotic cells percentage (TUNEL): significantly reduced
[2]
  strength of tone-shock pairing memory (freezing behavioral test): increased significantly
[3]; p<0.0001
  neuron cells percentage (NeuN): significantly preserved
[3]; p=0.0151
  neuron cells number (NeuN): significantly preserved
[4]
  tone-shock pairing memory (contextual fear conditioning): enhanced
[5]; p=0.0023
  expression of histone 4 acetylation (ac-H4): Significant increase
[5]; p=0.0043
  expression of p21: Significant increase
[5]; p=0.0311
  expression of phospho-ERK (p-ERK): Significant increase
[5]; p=0.0451
  expression of histone 3 acetylation (ac-H3): Significant increase
[6]; ###p=0.0008
  acetyl-Histone H4 expression in hippocampus: elevated
[6]; #p=0.0145
  p21 expression in hippocampus: elevated
[6]; #p=0.0231
  NR2a protein expression in hippocampus: elevated
[6]; #p=0.0428
  pERK expression in hippocampus: elevated
[6]; #p=0.0492
  NR2b protein expression in hippocampus: elevated
[7]
  BBB score (motor function): significant recovery
